# According to ChEMBL document CHEMBL1135109, “Discovery and initial SAR of imidazoquinoxalines as inhibitors of the Src-family kinase p56(Lck)” (Bioorg Med Chem Lett, 2002):
# Assays:
# [1] = target: Tyrosine-protein kinase Lck (Homo sapiens, UniProt P06239)
# Description: Inhibitory activity against recombinant p56 Lck tyrosine kinase expressed as a His-tagged protein in insect cells using a baculovirus expression system
# [2] = test system: T-cell; test: Compound was tested for potency against anti-CD3/anti-CD28 induced PBL proliferation of human peripheral blood T-cells
# Sequence of Tyrosine-protein kinase Lck (P06239 whole entry): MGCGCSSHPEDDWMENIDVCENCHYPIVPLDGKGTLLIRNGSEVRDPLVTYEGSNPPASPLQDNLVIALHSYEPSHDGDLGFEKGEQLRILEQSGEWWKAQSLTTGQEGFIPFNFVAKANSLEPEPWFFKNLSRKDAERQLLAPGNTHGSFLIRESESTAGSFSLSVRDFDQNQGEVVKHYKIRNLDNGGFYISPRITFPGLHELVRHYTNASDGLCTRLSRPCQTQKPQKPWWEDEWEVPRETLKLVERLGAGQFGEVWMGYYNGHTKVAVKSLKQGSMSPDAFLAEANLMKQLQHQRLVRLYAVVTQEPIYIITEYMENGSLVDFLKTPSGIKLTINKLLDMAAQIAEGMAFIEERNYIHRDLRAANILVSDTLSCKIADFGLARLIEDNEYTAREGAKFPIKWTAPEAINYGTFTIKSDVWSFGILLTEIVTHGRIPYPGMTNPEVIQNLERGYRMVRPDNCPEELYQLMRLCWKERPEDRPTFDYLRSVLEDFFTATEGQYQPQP
SMILES,IC50 [1],IC50 [2]
Cc1cc(C)c(Nc2nc3ccccc3n3cncc23)c(Cl)c1,30 nM,
CN(c1ccccc1Cl)c1nc2ccccc2n2cncc12,> 12500 nM,
c1ccc2c(c1)nc(NC1CCCCC1)c1cncn12,3170 nM,
Brc1ccccc1Nc1nc2ccccc2n2cnc(-c3ccccc3)c12,> 12500 nM,
c1cncc(Nc2nc3ccccc3n3cncc23)c1,820 nM,
Cc1cccc(C)c1-c1nc2ccccc2n2cncc12,> 12500 nM,
Brc1ccc(Nc2nc3ccccc3n3cncc23)cc1,> 12500 nM,
Clc1ccccc1Nc1nc2ccccc2n2cncc12,60 nM,
Clc1cccc(Cl)c1Nc1nc2ccccc2n2cncc12,9 nM,
Fc1cccc(Nc2nc3ccccc3n3cncc23)c1,1330 nM,
c1ccc2c(c1)nc(Nc1ccncc1)c1cncn12,> 12500 nM,
COc1ccc2c(nc(Nc3c(C)cccc3Cl)c3cnc(/C=N/O)n32)c1OC,4.3 nM,
O=C(Nc1nc2ccccc2n2cncc12)c1ccccc1Br,60 nM,
COc1ccc2c(nc(Nc3c(C)cccc3Cl)c3cnc(C(C)O)n32)c1OC (stereo not drawn),53 nM,
c1ccc(Nc2nc3ccccc3n3cncc23)cc1,890 nM,
Brc1ccccc1Nc1nc2ccccc2n2ccnc12,> 50000 nM,
CCNC(=O)c1ncc2c(Nc3c(C)cccc3Cl)nc3c(OC)c(OC)ccc3n12,665 nM,
Brc1ccccc1Oc1nc2ccccc2n2cncc12,3700 nM,
Cc1ncn2c1c(Nc1ccccc1Cl)nc1ccccc12,30 nM,
COc1ccc2c(nc(Nc3c(C)cccc3Cl)c3cnc(C)n32)c1OC,7.4 nM,
c1ccc2c(c1)nc(NC1CC1)c1cncn12,3170 nM,
Fc1cccc(F)c1Nc1nc2ccccc2n2cncc12,360 nM,
Brc1ccccc1Sc1nc2ccccc2n2cncc12,> 12500 nM,

SMILES,IC50 [1],IC50 [2]
O=[N+]([O-])c1ccccc1Nc1nc2ccccc2n2cncc12,> 12500 nM,
Cc1ccc(Nc2nc3ccccc3n3cncc23)c(Cl)c1,240 nM,
Clc1cccc(CCNc2nc3ccccc3n3cncc23)c1,4390 nM,
Cc1ncc2c(Nc3ccccc3Br)nc3ccccc3n12,180 nM,
COc1ccccc1Nc1nc2ccccc2n2cncc12,5520 nM,
COc1ccc2c(nc(Nc3c(C)cccc3Cl)c3cnc(CCCO)n32)c1OC,69 nM,
CCc1cccc(CC)c1Nc1nc2ccccc2n2cncc12,1690 nM,
COc1ccc2c(nc(Nc3c(C)cccc3Cl)c3cnc(C(O)C(C)C)n32)c1OC (stereo not drawn),238 nM,
Fc1ccccc1Nc1nc2ccccc2n2cncc12,390 nM,
Cc1cccc(C)c1Nc1nc2ccccc2n2cncc12,16 nM,3000 nM
COc1ccc2c(nc(Nc3c(C)cccc3Cl)c3cncn32)c1OC,2 nM,670 nM
O=C(Nc1nc2ccccc2n2cncc12)c1c(Cl)cccc1Cl,810 nM,
CCCNc1nc2ccccc2n2cncc12,2680 nM,
COc1ccc2c(nc(Nc3c(C)cccc3Cl)c3cnc(C=O)n32)c1OC,10 nM,
CCCCCCNc1nc2ccccc2n2cncc12,> 12500 nM,
Cc1cc(C)c(Nc2nc3ccccc3n3cncc23)c(C)c1,40 nM,
Cc1ccccc1C(=O)Nc1nc2ccccc2n2cncc12,> 12500 nM,
Brc1ccccc1Nc1nc2ccccc2n2cncc12,,17000 nM
COc1ccc2c(nc(Nc3c(C)cccc3Cl)c3cnc(CO)n32)c1OC,6.2 nM,
Brc1cccc(Br)c1Nc1nc2ccccc2n2cncc12,50 nM,
Cc1cccc(Cl)c1Nc1nc2ccccc2n2cncc12,9 nM,7000 nM
c1ccc(CNc2nc3ccccc3n3cncc23)cc1,> 12500 nM,
